Literature values in patent publication US20200078455A1, “MESOTHELIN VACCINE FOR OVARIAN CANCER PREVENTION” (SRI INTERNATIONAL, priority 2017, published 2020).

B1: Abagovomab (antibody, chains of the INN, looked up, V domains shown)
VH: QVKLQESGAELARPGASVKLSCKASGYTFTNYWMQWVKQRPGQGLDWIGAIYPGDGNTRYTHKFKGKATLTADKSSSTAYMQLSSLASEDSGVYYCARGEGNYAWFAYWGQGTTVTVSS
VL: DIELTQSPASLSASVGETVTITCQASENIYSYLAWHQQKQGKSPQLLVYNAKTLAGGVSSRFSGSGSGTHFSLKIKSLQPEDFGIYYCQHHYGILPTFGGGTKLEIK
notes: ovarian cancer vaccine that has been studied

Molecule | recurrence rate (compared with women who received a placebo) | immune response (women with ovarian cancer) | survival (women with ovarian cancer)
Oregovomab | no difference in the recurrence rate | elicit an immune response | –
B1 | – | elicit an immune response | not clear that this leads to longer survival
